According to patent US20230382865A1, “HISTONE DEMETHYLASE 5 INHIBITORS AND USES THEREOF” (DANA-FARBER CANCER INSTITUTE, INC., priority 2018, published 2023):
Where “and” joins values, the source holds several entries; their conditions need not be identical. Equal values may be shown once. Blank lines part the entries; values can stand above or below the compound they belong to.

Key:
[1] = molecular target: KDM5B (Homo sapiens, UniProt Q9UGL1); assay: KDM5B alphascreen activity assay; assay type: biochemical; conditions: Table 1, KDM5B alphascreen activity assay
Chain of KDM5B (Q9UGL1 whole entry): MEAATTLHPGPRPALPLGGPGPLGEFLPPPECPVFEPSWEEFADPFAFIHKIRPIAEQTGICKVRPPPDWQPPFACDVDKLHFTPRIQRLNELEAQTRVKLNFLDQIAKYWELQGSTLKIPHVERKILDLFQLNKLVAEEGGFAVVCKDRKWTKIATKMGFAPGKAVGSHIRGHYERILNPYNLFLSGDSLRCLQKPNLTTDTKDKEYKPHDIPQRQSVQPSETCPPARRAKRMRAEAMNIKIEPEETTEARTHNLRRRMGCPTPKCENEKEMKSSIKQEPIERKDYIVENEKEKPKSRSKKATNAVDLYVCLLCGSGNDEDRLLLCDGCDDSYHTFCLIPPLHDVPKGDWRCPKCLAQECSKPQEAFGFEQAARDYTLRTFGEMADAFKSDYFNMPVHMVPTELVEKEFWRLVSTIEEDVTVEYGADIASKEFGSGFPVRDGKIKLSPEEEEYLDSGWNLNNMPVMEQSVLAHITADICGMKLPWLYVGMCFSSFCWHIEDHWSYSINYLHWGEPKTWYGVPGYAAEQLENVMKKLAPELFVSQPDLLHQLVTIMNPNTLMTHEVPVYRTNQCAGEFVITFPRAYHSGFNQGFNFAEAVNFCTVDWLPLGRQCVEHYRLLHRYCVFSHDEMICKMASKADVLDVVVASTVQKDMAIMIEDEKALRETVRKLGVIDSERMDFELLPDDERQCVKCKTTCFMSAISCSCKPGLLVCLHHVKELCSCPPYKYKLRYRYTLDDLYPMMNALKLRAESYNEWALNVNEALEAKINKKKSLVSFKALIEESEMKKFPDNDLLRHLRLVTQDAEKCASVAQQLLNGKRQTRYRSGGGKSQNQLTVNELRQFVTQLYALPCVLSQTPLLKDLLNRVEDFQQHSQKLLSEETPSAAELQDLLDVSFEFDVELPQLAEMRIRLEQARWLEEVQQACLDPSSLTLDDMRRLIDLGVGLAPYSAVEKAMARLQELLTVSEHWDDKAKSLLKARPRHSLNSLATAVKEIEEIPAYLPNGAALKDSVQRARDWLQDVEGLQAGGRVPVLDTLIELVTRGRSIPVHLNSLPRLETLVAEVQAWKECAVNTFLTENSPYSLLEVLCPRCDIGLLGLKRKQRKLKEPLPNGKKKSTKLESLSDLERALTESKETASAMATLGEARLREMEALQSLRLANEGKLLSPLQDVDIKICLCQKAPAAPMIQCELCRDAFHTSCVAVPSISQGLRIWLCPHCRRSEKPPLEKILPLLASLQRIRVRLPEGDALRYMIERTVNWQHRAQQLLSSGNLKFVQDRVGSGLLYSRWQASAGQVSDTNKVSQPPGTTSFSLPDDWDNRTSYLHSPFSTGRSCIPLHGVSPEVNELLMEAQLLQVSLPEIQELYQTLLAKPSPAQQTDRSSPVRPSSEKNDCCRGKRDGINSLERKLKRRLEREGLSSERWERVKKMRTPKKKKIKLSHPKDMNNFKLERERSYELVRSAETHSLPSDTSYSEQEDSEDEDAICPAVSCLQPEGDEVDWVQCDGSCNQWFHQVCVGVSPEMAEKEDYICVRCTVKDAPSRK
Description: All subsequent steps were carried out in assay buffer (50 mM HEPES, pH 7.5, 0.1% (wt/vol) BSA and 0.01% (vol/vol) Tween-20). […] The final concentration of DMSO was 1%. […] Data were normalized to the (no-enzyme) control, and the IC50 values were determined via nonlinear regression curve fit using GraphPad Prism 7.

[2] = test system: luciferized molp8 cells; assay: In vivo mouse study, bioluminescence imaging (BLI) of luciferized molp8 cells; design: species or system Mice; reference not given here; conditions: one individual mouse (cage, EP)
Description: Mice were injected intravenously with luciferized molp8 cells. Half million cells per mice. After 1 week, the tumor was observed using bioluminescence imaging (BLI). The normalized total flux was measured over 17 days (FIG. 12; Table 5) Mice were randomized into control and treatment. Treatment lasted for 21 days. Animals with 15% weight loss was terminated.

[3] = test system: MYC target genes in MM.1S cells; assay: Gene expression profile by RNA-seq with gene set enrichment analysis in MM.1S cells; assay type: cell-based, human; conditions: RNA-seq after treatment in MM.1S cells
From the text: To clarify the molecular mechanism whereby KDM5A mediates MM cell growth, the gene expression profile using RNA-seq after the treatment with pck82 in MM.1S cells was examined.

[4] = test system: H3K4me3 mark; assay: ChIP-seq analysis of H3K4me3 mark; assay type: cell-based

IC50 [1]: 7.92 µM
Compound: CC(C)c1c(-c2ccccc2)[nH]c2c(C#N)cnn2c1=O [CPI455]

Compound: CCN(CCN(C)C)C(=O)CNCc1cc(C(=O)Oc2ccc(OC(C)C)cc2OC(C)C)ccn1 [PCK82]
Normalized total flux from BLI imaging ([2]; Day 0): 1
Normalized total flux from BLI imaging ([2]; Day 3): 3.764 and 4.5 and 4.255 and 3.625 and 2.035 and 2.296 and 3.238 and 0.2149 and 0.3339
Normalized total flux from BLI imaging ([2]; Day 7): 0.5646 and 9.722 and 8.546 and 8.656 and 13.51 and 1.677 and 8.169 and 0.2301 and 39.37
Normalized total flux from BLI imaging ([2]; Day 10): 6.63 and 19.33 and 0.422 and 44.375 and 23.38 and 25.97 and 24.97 and 1.029 and 6.22
Normalized total flux from BLI imaging ([2]; Day 14): 191.7 and 165.6 and 135.1 and 93.75 and 380.3 and 314.2 and 275.1 and 75.66 and 5.654
Normalized total flux from BLI imaging ([2]; Day 17): 306.3 and 4.861 and 358.2 and 465.625 and 258.8 and 133.2 and 277.2 and 359 and 565.6
Normalized total flux from BLI imaging ([2]; Day 21): 45 and 3.404 and 435.5 and 58.66 and 1309 and 1224 and 847.4 and 121.6 and 1078
expression of MYC target genes (gene set enrichment analysis) [3]: decreased expression of MYC target genes
H3K4me3 mark, global ([4]; ChIP-seq after treatment): globally increased H3K4me3 mark
H3K4me3 mark at the loci of MYC and its targets ([4]; ChIP-seq, targets whose expression is down-regulated after treatment): did not increase this mark
